From patent publication US20080207695A1, “Thrombin Inhibiting 2-Oxo-1,2,5,6-Tetrahydropyridine Derivatives” (ASTRAZENECA AB, priority 2005, published 2008)

Columns and labels:
[1] = Test F: in vitro (liver microsome) stability, human liver microsomes; type: in vitro ADME; settings: liver microsomes from humans, NADPH, 37° C.
Method: (§1) Determination of In Vitro (Liver Microsome) Stability
(§2) Liver microsomes are prepared from Sprague-Dawley rats and human liver samples according to internal SOPs. The compounds are incubated at 37° C. at a total microsome protein concentration of 0.5 mg/mL in a 0.1 mol/L potassium phosphate buffer at pH 7.4, in the presence of the cofactor, NADPH (1.0 mmol/L). The initial concentration of compound is 1.0 μmol/L. Samples are taken for analysis at 5 time points, 0, 7, 15, 20 and 30 minutes after the start of the incubation. The enzymatic activity in the collected sample is immediately stopped by adding an equal volume of acetonitrile containing 0.8% formic acid. The concentration of compound remaining in each of the collected samples is determined by means of LC-MS/MS. The elimination rate constant (k) of the thrombin inhibitor is calculated as the slope of the plot of ln[Thrombin inhibitor] against incubation time (minutes). The elimination rate constant is then used to calculate the half-life (T1/2) of the thrombin inhibitor, which is subsequently used to calculate the intrinsic clearance (CLint) of the thrombin inhibitor in liver microsomes as: […]

[2] = Test F: in vitro (liver microsome) stability, rat liver microsomes; type: in vitro ADME, Sprague-Dawley rats; settings: liver microsomes from rats, NADPH, 37° C.
Method: as §1, §2

SMILES | conversion to the corresponding active inhibitor (title compound of Example 1) [1] | conversion to the corresponding active inhibitor (title compound of Example 1) [2]
CC1=C(CC(=O)NCc2c(C)cc(N)nc2COC(=O)c2ccccc2)C(=O)N(NCC(F)(F)c2ccccn2)CC1 [Example 3, (6-Amino-3-{[({1-[(2,2-difluoro-2-pyridin-2-ylethyl)amino]-4-methyl-2-oxo-1,2,5,6-tetrahydropyridin-3-yl}acetyl)amino]methyl}-4-methylpyridin-2-yl)-methyl benzoate] | converted to the corresponding active inhibitor | converted to the corresponding active inhibitor
CC(=O)OCc1nc(N)cc(C)c1CNC(=O)CC1=C(C)CCN(NCC(F)(F)c2ccccn2)C1=O [Example 2, (6-Amino-3-{[({1-[(2,2-difluoro-2-pyridin-2-ylethyl)amino]-4-methyl-2-oxo-1,2,5,6-tetrahydropyridin-3-yl}acetyl)amino]methyl}-4-methylpyridin-2-yl)-methyl acetate] | converted to the corresponding active inhibitor | converted to the corresponding active inhibitor
